These results are taken from patent EP4652998A1, “TREATMENT OF RECEPTOR-INTERACTING PROTEIN KINASE 1- MEDIATED DISEASE WITH ECLITASERTIB” (Technische Universität München, priority 2024, dated 2025).

SMILES strings stand for the structures.

The test system of series [1] is primary human keratinocytes. The series can be described thus: Cell viability assay (MTS/PMS) after cell death induction with IFN-γ + TNF-α + zVAD + SMAC. Format: cell-based. The settings on record: 4 nM RIPK1 inhibitor (or higher), zVAD [20 µM] and SMAC [1 µM], 24 h, normalized to zVAD + SMAC (100 %), stimulated control 43,6 % ± 7.6 %, n=4. On the procedure:
Primary human keratinocytes were obtained from healthy donors by suction blister as reported before (J Allergy Clin Immunol 141, 1320-1333 e1311 (2018)) and donor characteristics are listed in Table S3. Epidermal keratinocytes were cultured in keratinocyte medium (DermaLife Basal Medium supplemented with DermaLife K LifeFactor Kit (Lifeline Cell Technology, LL-0007)) at 37 °C, 5 % CO2 and second- to third-passages were used. At 70-80 % of confluence, keratinocytes were pre-incubated for 1 h with RIPK1 inhibitor (100 nM or as indicated, SANOFI) followed by stimulation with rhIFN-γ (100 ng/ml or as indicated, R&D, #285-IF-100/CF) and rhTNF-α (100 ng/ml or as indicated, R&D, #210_TA/CF) in the presence of zVAD (20 µM, Cell Signaling, #60332), SMAC (1 µM, LC Laboratories, #B-9135) and the RIPK1 inhibitor for 24 h in keratinocyte medium without hydrocortisone.
Cell viability of cultured keratinocytes was determined using CellTiter 96® Aqueous NonRadioactive Cell Proliferation Assay (Promega, G5421) according to manufacturer's instructions. MTS/PMS reagent was used 1:6 diluted in keratinocyte medium without hydrocortisone and incubated for 1 h. Afterwards, supernatants were analysed by ELISA at 490 nm minus 700 nm as reference. To calculate the percentage of cell viability to ZS extinction values were normalized to the control stimulation zVAD + SMAC (100 %).

For series [2], the target named is T1, RIPK1 (Homo sapiens, UniProt Q13546).
T1 construct: Detection of RIPK1-pS 166 in WB analysis of primary human keratinocytes; endogenous in cells; host or cells: primary human keratinocytes from healthy donors (suction blister)
T1 sequence (Q13546 1-671): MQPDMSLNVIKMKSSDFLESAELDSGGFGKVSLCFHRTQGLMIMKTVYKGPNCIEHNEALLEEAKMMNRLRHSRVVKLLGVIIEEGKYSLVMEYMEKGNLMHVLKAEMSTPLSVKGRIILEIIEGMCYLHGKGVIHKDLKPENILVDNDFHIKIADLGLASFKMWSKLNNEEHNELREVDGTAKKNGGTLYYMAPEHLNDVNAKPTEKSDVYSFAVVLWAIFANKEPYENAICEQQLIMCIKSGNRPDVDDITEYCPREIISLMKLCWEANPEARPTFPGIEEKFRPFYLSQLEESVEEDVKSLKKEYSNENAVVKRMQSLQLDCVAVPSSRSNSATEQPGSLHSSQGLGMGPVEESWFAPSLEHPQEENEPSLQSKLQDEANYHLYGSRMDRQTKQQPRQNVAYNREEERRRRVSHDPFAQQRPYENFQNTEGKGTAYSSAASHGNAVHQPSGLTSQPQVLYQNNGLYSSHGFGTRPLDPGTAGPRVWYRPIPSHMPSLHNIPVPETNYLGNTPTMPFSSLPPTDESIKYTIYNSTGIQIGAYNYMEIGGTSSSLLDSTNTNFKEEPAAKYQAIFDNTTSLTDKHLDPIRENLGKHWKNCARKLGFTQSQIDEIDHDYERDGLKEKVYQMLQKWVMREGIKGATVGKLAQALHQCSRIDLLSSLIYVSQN
Briefly: Western blot of RIPK1-pS166 autophosphorylation in keratinocytes. Format: cell-based. The settings on record: RIPK1-pS166, 100 nM inhibitor, 6 h after IFN-γ [10 ng/ml] + TNF-α [10 ng/ml] + zVAD [20 µM]. Here is the method:
Keratinocytes were lysed in RIPA lysis buffer (Santa Cruz) supplemented with 1 mM sodium orthovanadate, 2mM PMSF and proteinase inhibitor cocktail (1:70) according to the manufacturer's instructions.

Series [3] relates to keratinocyte skin equivalents. Briefly: Three-dimensional keratinocyte skin equivalents stimulated with LP/LE-TCS, secreted cytokines in supernatant. Format: cell-based, human. The settings on record: 100 nM inhibitor, 72 h, relative concentration to stimulated control (ZS + LP/LE-TCS) without inhibitor, n=3. On the procedure:
Three-dimensional keratinocyte skin equivalents were generated as described before Arch Dermatol Res 296, 203-211 (2004)). Briefly, 3.0E^5 primary human keratinocytes were seeded in 500 µL keratinocyte medium with 1.5 mM CaCh into the insert and placed in a well containing the same medium. After two days, keratinocytes were exposed to the air-liquid interface and medium in the surrounding well was supplemented with 50 µg/mL Vitamin C. Nine days after airlift, the skin equivalents were pre-treated for 1 h with RIPK1 inhibitor (100 nM, SANOFI) followed by a stimulation with supernatant mix of lesional T cells from LP and LE patients (1: 10 diluted) in the presence of zVAD (20 µM, Cell Signaling, #60332), SMAC (1 µM, LC Laboratories, #B-9135) and the RIPK1 inhibitor for 72 h. Afterwards, membranes of the fixated skin equivalents were cut out with a scalpel, divided into two pieces, formalin fixed and embedded in paraffin. Primary human lesional T cells were isolated from freshly taken skin biopsies of LP (n=5) and LE (n=3) patients (patient characteristics see Table S 1) by emigration towards an IL-2 gradient followed by expansion with α-CD3/α-CD28 stimulation as described previously (J Invest Dermatol, (2018), Case Rep Pathol 2021, 8819560 (2021)). Supernatants of expanded lesional T cells were generated by 3-day stimulation with 0.75 µg/mL α-CD3 (pre-coated, BD Biosciences) and 0.75 µg/mL soluble α-CD28 (BD Biosciences). A mixture of all 8 lesional supernatants at equimolar ratio was used for stimulation of 3D keratinocyte skin equivalents. Concentrations of key cytokines in the supernatant mix of lesional T cells were determined by a multiplex ELISA (Biorad) and listed in Table S4. Table S4. Composition of lesional LP/LE-TCS mix. Hu = human. Cell free supernatants derived from keratinocyte stimulation experiments or lesional TCS from LP/LE patients were analysed for 27 cytokines, chemokines and growth factors using the Bio-Plex Pro Human Cytokine 27-plex Assay (Bio-Rad Laboratories, Hercules, Calif) according to the manufacturer's recommendation.

`CN1C(=O)[C@@H](NC(=O)c2nnc(Cc3ccccc3)[nH]2)COc2cccnc21` [SAR443122, 5-Benzyl-N-[(3S)-5-methyl-4-oxo-2,3-dihydropyrido[3,2-b][1,4]oxazepin-3-yl]-4H-1,2,4-triazole-3-carboxamide]: in series [1], the viability is recorded as 95.1 % ± 0.8. In addition, the RIPK1 autophosphorylation entry in series [2] was “efficiently blocked”. In addition, in series [3], the “release of CCL20” value is reported as 29.1 % ± 4.4, the “release of II,-1RA” value is on record as 48.9 % ± 18.0 and the “release of TNF-α” value is 70.3 % ± 6.3. Further, in series [3] (p=0.4757), the “release of IL-8” value is reported as 79.8 % ± 9.6.
